In US8802597B2, “Herbicidal pyrimidines” (E I du Pont de Nemours and Company, priority 2003, dated 2014):

Experiments:
Assay type in all cases: in vivo
[1] = tested on: morningglory (Ipomoea coccinea); assay: Test B pre/postemergence
Text: (§1) Seeds selected from barnyardgrass (Echinochloa crus-galli), Surinam grass (Brachiaria decumbens), cocklebur (Xanthium strumarium), corn (Zea mays), crabgrass (Digitaria sanguinalis), giant foxtail (Setaria faberii), lambsquarters (Chenopodium album), morningglory (Ipomoea coccinea), pigweed (Amaranthus retroflexus), velvetleaf (Abutilon theophrasti), and wheat (Triticum aestivum) were planted and treated preemergence with test chemicals formulated in a non-phytotoxic solvent mixture which included a surfactant.
(§2) At the same time, plants selected from these crop and weed species and also blackgrass (Alopecurus myosuroides) and wild oat (Avena fatua) were treated with postemergence applications of test chemicals formulated in the same manner. Plants ranged in height from 2 to 18 cm (1- to 4-leaf stage) for postemergence treatments. Plant species in the flooded paddy test consisted of rice (Oryza sativa), umbrella sedge (Cyperus difformis), duck salad (Heteranthera limosa) and barnyardgrass (Echinochloa crus-galli) grown to the 2-leaf stage for testing. Treated plants and controls were maintained in a greenhouse for 13 to 15 days, after which time all species were compared to controls and visually evaluated. Plant response ratings, summarized in Table B, are based on a scale of 0 to 100 where 0 is no effect and 100 is complete control. A dash (-) response means no test result.

[2] = tested on: velvetleaf (Abutilon theophrasti); assay: Test B pre/postemergence
Text: as §1, §2

[3] = tested on: cocklebur (Xanthium strumarium); assay: Test B pre/postemergence
Text: as §1, §2

[4] = tested on: giant foxtail (Setaria faberii); assay: Test B pre/postemergence
Text: as §1, §2

[5] = tested on: pigweed (Amaranthus retroflexus); assay: Test B pre/postemergence
Text: as §1, §2

[6] = tested on: wheat (Triticum aestivum); assay: Test B pre/postemergence
Text: as §1, §2

[7] = tested on: Surinam grass (Brachiaria decumbens); assay: Test B pre/postemergence
Text: as §1, §2

[8] = tested on: barnyardgrass (Echinochloa crus-galli); assay: Test B pre/postemergence
Text: as §1, §2

corn (Zea mays) = assay: Test B pre/postemergence
Text: as §1, §2

[9] = tested on: crabgrass (Digitaria sanguinalis); assay: Test B pre/postemergence
Text: as §1, §2

[10] = tested on: lambsquarters (Chenopodium album); assay: Test B pre/postemergence; conditions: Postemergence
Text: as §1, §2

wild oat (Avena fatua) = assay: Test B postemergence
Text: as §1, §2

[11] = tested on: blackgrass (Alopecurus myosuroides); assay: Test B postemergence
Text: as §1, §2

[12] = Postemergence, 125 g ai/ha, scale 0 to 100 (0 no effect, 100 complete control)
[13] = Postemergence, 500 g ai/ha, scale 0 to 100
[14] = Preemergence, 125 g ai/ha, scale 0 to 100 (0 no effect, 100 complete control)
[15] = Preemergence, 500 g ai/ha, scale 0 to 100 (0 no effect, 100 complete control)
[16] = 125 g ai/ha, scale 0 to 100 (0 no effect, 100 complete control)

**Q.** For `CCOC(=O)c1nc(C2CC2)nc(NNC(C)=O)c1Br` [Compound 126], which “Morningglory plant response rating” value [1, 12] is on record?
**A.** 30

**Q.** What about the “Plant response rating, Morningglory” value [1, 13] of the same compound?
**A.** 60

**Q.** And the “Plant response rating, Morningglory” value [1, 14]?
**A.** 0

**Q.** What about the “Plant response rating, Morningglory” value [1, 15] of the same compound?
**A.** 70

**Q.** And the “Velvetleaf plant response rating” value [2, 12]?
**A.** 10

**Q.** And the “Plant response rating, Velvetleaf” value [2, 13]?
**A.** 20

**Q.** And the “Plant response rating, Velvetleaf” value [2, 14]?
**A.** 10

**Q.** And the “Plant response rating, Velvetleaf” value [2, 15]?
**A.** 20

**Q.** And the “Cocklebur plant response rating” value [3, 12]?
**A.** 0

**Q.** What about the “Plant response rating, Cocklebur” value [3, 13] of the same compound?
**A.** 0

**Q.** What about the “Plant response rating, Cocklebur” value [3, 14] of the same compound?
**A.** 0

**Q.** What about the “Plant response rating, Cocklebur” value [3, 15] of the same compound?
**A.** 90

**Q.** What about the “Foxtail, Giant plant response rating” value [4, 12] of the same compound?
**A.** 0

**Q.** And the “Plant response rating, Foxtail, Giant” value [4, 13]?
**A.** 0

**Q.** What about the “Plant response rating, Foxtail, Giant” value [4, 14] of the same compound?
**A.** 0

**Q.** And the “Plant response rating, Foxtail, Giant” value [4, 15]?
**A.** 0

**Q.** What about the “Pigweed plant response rating” value [5, 12] of the same compound?
**A.** 0

**Q.** And the “Plant response rating, Pigweed” value [5, 13]?
**A.** 30

**Q.** And the “Plant response rating, Pigweed” value [5, 14]?
**A.** 20

**Q.** What about the “Plant response rating, Pigweed” value [5, 15] of the same compound?
**A.** 80

**Q.** What about the “Wheat plant response rating” value [6, 12] of the same compound?
**A.** 0

**Q.** And the “Plant response rating, Wheat” value [6, 13]?
**A.** 0

**Q.** What about the “Plant response rating, Wheat” value [6, 14] of the same compound?
**A.** 0

**Q.** And the “Plant response rating, Wheat” value [6, 15]?
**A.** 0

**Q.** What about the “Surinam Grass plant response rating” value [7, 12] of the same compound?
**A.** 0

**Q.** What about the “Plant response rating, Surinam Grass” value [7, 13] of the same compound?
**A.** 70

**Q.** And the “Plant response rating, Surinam Grass” value [7, 14]?
**A.** 0

**Q.** And the “Plant response rating, Surinam Grass” value [7, 15]?
**A.** 20

**Q.** And the “Barnyardgrass plant response rating” value [8, 12]?
**A.** 0

**Q.** What about the “Plant response rating, Barnyardgrass” value [8, 13] of the same compound?
**A.** 0

**Q.** And the “Plant response rating, Barnyardgrass” value [8, 14]?
**A.** 0

**Q.** And the “Plant response rating, Barnyardgrass” value [8, 15]?
**A.** 0

**Q.** What about the “Corn plant response rating” value (corn (Zea mays); [12]) of the same compound?
**A.** 0

**Q.** And the “Plant response rating, Corn” value (corn (Zea mays); [13])?
**A.** 10

**Q.** What about the “Plant response rating, Corn” value (corn (Zea mays); [14]) of the same compound?
**A.** 0

**Q.** And the “Plant response rating, Corn” value (corn (Zea mays); [15])?
**A.** 0

**Q.** What about the “Crabgrass plant response rating” value [9, 12] of the same compound?
**A.** 0

**Q.** And the “Plant response rating, Crabgrass” value [9, 13]?
**A.** 20

**Q.** And the “Plant response rating, Crabgrass” value [9, 14]?
**A.** 80

**Q.** What about the “Plant response rating, Crabgrass” value [9, 15] of the same compound?
**A.** 100

**Q.** What about the “Lambsquarters plant response rating” value [10, 16] of the same compound?
**A.** 30

**Q.** What about the “Plant response rating, Lambsquarters” value ([10]; 500 g ai/ha, scale 0 to 100) of the same compound?
**A.** 40

**Q.** And the “Oat, Wild plant response rating” value (wild oat (Avena fatua); [16])?
**A.** 0

**Q.** What about the “Plant response rating, Oat, Wild” value (wild oat (Avena fatua); 500 g ai/ha, scale 0 to 100) of the same compound?
**A.** 20

**Q.** What about the “Blackgrass plant response rating” value [11, 16] of the same compound?
**A.** 0

**Q.** And the “Plant response rating, Blackgrass” value ([11]; 500 g ai/ha, scale 0 to 100)?
**A.** 0
